Measurements: patent publication US6528514B1, “IgE antibody production inhibitors and autoimmune diseases inhibitors” (Welfide Corporation, priority 1998, dated 2003)

Tests used:
IgE antibody = experiment: Determination of serum IgE antibody titer in HgCl2-administered BN rats (ELISA); assay type: in vivo, rat; conditions: for Serum IgE antibody titer / inhibition of IgE antibody titer increased by HgCl2 (in words): male BN rats; for Serum IgE antibody titer: HgCl2 1 mg/mL/kg s.c., compound 30 mg/kg/day orally for 6 days, serum on day 7, *p < 0.05; for inhibition at 30 mg/kg/day: Rattus norvegicus, po, read-out: Inhibition rate
Method: HgCl2, 1 mg/mL/kg, was administered to male BN rats (8 animals per group) subcutaneously at the back (HgCl2 group). Separately, to male BN rats (8 animals per group) similarly administered with HgCl2, Compounds 1˜4 were administered orally in a daily dose of 30 mg/kg for 6 consecutive days beginning the HgCl2 administration day (Compound 1 administration group, Compound 2 administration group, Compound 3 administration group, and Compound 4 administration group, respectively). Here, Compound 3 is 2-[5-amino-2-(3-methoxyphenyl)-6-oxo-1,6-dihydro-1-pyrimidinyl]-N-[1-[(benzoxazol-2-yl)carbonyl]-2-phenylethyl]acetamide and Compound 4 is 2-[5-amino-2-(3-methoxyphenyl)-6-oxo-1,6-dihydro-1-pyrimidin-yl]-N-[1-[[5-(methoxycarbonyl)benzoxazol-2-yl]carbonyl]-2-phenylethyl]acetamide. On day 7 following HgCl2 administration, the animals were sacrificed with CO2 gas, thoracotomized, and the cardiac blood was collected and centrifuged to recover the serum. The serum samples were stored at −20° C. and the IgE antibody titer was determined by the following procedure.
Anti-rat IgE monoclonal antibody [MCARE-01] [manufactured by Biochemical Industry Co., 01404] was diluted to 5 μg/mL with 0.02% NaN3/PBS and an ELISA plate was coated with 50 μL of the solution at 4° C. overnight. After each well was washed, blocking was performed with 3% skim milk/TBS at room temperature for at least 1 hour. After another washing, 50 μL of the test sample diluted 200-fold with 1% BSA/TBS was added to each well, followed by 2 hours of incubation at room temperature. Each well was washed and 50 μL of ALP-labeled anti-rat κ & λ-chain monoclonal antibody (Sigma, lot 113H4804) diluted 5000-fold with 1% BSA/TBS was added. The plate was incubated at room temperature for 2 hours. Each well was washed again, and 50 μL/well of p-nitrophenyl phosphate (in 0.1 M diethanolamine, 1 mg/mL, pH 9.8) was added as the substrate solution. After color development, the reaction was stopped with an equal amount of 0.5 M NaOH and the OD was measured at the wavelength of 405 nm. As the standard rat IgE, Chemicon's rat IgE was used.

[1] = tested on: anti-type II collagen antibody; experiment: Assay of anti-type II collagen antibody in serum of HgCl2-administered BN rats; assay type: in vivo, rat; conditions: male BN rats, Compound 1 30 mg/kg orally every day, serum day 12, 14, 16
Method: (§1) HgCl2, 1 mg/mL/kg, was administered to male BN rats (8 animals per group) subcutaneously at the back every other day from day 1 to day 10, for a total of 5 times (HgCl2 administration group). Separately, in parallel with the administration of HgCl2 in the same manner as above, Compound 1 was administered orally in a daily dose of 30 mg/kg every day (Compound 1 administration group). In the normal group, PBS was administered. On day 12, day 14 and day 16, the blood was drawn from the tail vein and centrifuged to separate the serum. (2-1) Assay of anti-ssDNA antibody
Type II collagen (Collagen Technology Forum, 64-50823) was diluted to 50 μg/mL with 0.02% NaN3/PBS and an ELISA plate was coated with 50 μL/well at 4° C. overnight. After washing, 50 μL of the test sample diluted 50-fold with 1% BSA/PBS was added to the each well and the plate was incubated at room temperature for 2 hours. As the background, wells not supplied with the test sample were provided. Amount of bound antibody was measured as the change of absorbance at 490 nm to 650 nm with the combination of peroxidase-labeled anti-rat IgE(Fc) monoclonal antibody and o-phenylendiamine (1 mg/mL) and H2O2 (as the control, the OD on day 1 was used). The amount of anti-type II collagen antibody was calculated as the difference (ΔOD) from that of the background.
The ordinate represents the difference in absorbance (ΔOD). […]

anti-ssDNA antibody = experiment: Assay of anti-ssDNA antibody in serum of HgCl2-administered BN rats; assay type: in vivo, rat; conditions: male BN rats, Compound 1 30 mg/kg orally every day, serum day 12, 14, 16
Method: as §1
A 96-well plate was coated with 50 μL/well of ε-poly-L-lysine having a molecular weight of 2000˜4000 (Wako Pure Chemical Industries, ECN 6644, 25 μg/mL in PBS) at room temperature for 3 hours. […]
After washing, 50 μL of the test sample diluted 50-fold with 1% BSA/PBS was added to each well, and the plate was incubated at room temperature for 2 hours. […] Amount of bound antibody was measured as the change of absorbance at 490 nm to 650 nm with the combination of peroxidase-labeled anti-rat IgE(Fc) monoclonal antibody and o-phenylendiamine (1mg/mL) and H2O2 (as the control, the OD on day 1 was used). The amount of anti-ssDNA antibody was calculated as the difference (ΔOD) from that of the background.
The ordinate represents the difference in absorbance (ΔOD) . […]

male BN rats = experiment: Arthritis assay in HgCl2-administered BN rats (hindpaw volume, severity score); assay type: in vivo, rat; conditions: HgCl2 s.c. every other day day 1 to day 10, Compound 1 orally every day
Method: HgCl2, 1 mg/mL/kg, was administered to male BN rats (8 animals per group) subcutaneously at the back every other day from day 1 to day 10, for a total of 5 times (HgCl2 administration group). Separately, in parallel with the administration of HgCl2, Compound 1 was administered orally in a daily dose of […] every day (Compound 1 administration group). In the normal group, PBS in lieu of HgCl2 was administered. On day 1, day 12, day 14, day 16 and day 18, the right and left hindpaw volumes were measured and the severity of arthritis was scored.
With regard to right and left hindpaw volumes, the left hindpaw and right hindpaw of each rat were respectively immersed in water and the increase in volume of the water was measured to calculate the rate of increase (%).
“LEFT” represents the left hindpaw volume and “RIGHT” represents the right hindpaw volume. The ordinate represents the rate of volume increase (%). The abscissa represents the number of days from the first day of testing to the measurement day. […]
The arthritis severity was scored for each limb according to the following criteria and the total of scores for the four limbs (maximum score=16) and the average of the scores for 8 animals per group were calculated. […]

human heart chymase = target: T1, human heart chymase (Homo sapiens, UniProt P23946); experiment: human heart chymase inhibitory activity test (amidase inhibitory activity); assay type: biochemical; conditions: 5 nM chymase; substrate succinyl-alanyl-alanyl-prolyl-phenylalanine-p-nitroanilide; pH 7.5
T1 sequence (P23946 22-247): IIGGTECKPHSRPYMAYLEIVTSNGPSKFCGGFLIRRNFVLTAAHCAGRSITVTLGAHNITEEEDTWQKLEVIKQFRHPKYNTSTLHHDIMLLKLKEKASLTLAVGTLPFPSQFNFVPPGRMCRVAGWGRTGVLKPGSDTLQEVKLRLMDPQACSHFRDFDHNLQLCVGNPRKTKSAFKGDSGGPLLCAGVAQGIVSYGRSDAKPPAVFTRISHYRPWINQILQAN
Method: The human heart chymase-inhibitory activity of the obtained Compound 1 was assayed in terms of amidase inhibitory activity of human heart chymase and the efficacy of the compound was evaluated as follows.
The inhibitory activity was determined from the change in residual activity fraction of 5 nM chymase using a concentration series (<×1,<×10,<×100 equivalents) of Compound 1 in the presence of the synthetic substrate succinyl-alanyl-alanyl-prolyl-phenylalanine-p-nitroanilide at a final concentration of 2.5 mmol. Analysis of inhibitory potency was made by the least square regression of the Easson-Stedman plot utilizing bimolecular equilibrium reaction linearization (Proc. Roy. Soc. B., 121, 141, 1936). The apparent inhibition constant (Kiapp) obtained by this analysis and the inhibition constant (Ki) calculated from the final concentration of the substrate in the reaction mixture and the Km value measured separately were used to evaluate the inhibitory activity. For determination of the initial velocity of the enzymatic reaction, the amount of p-nitroaniline produced by hydrolysis of the substrate was spectrometrically estimated from the increase in the absorbance at 405 nm after subtraction of the absorbance at 650 nm. […]
From the absorbance reading immediately after addition of the enzyme, the increase in absorbance was recorded at exactly equal time-intervals as a progressive curve.

[2] = inhibition of serum IgE antibody titer vs HgCl2 group, 30 mg/kg/day orally for 6 days, day 7

Structure (SMILES) | Inhibition rate (IgE antibody; [2]) | Serum IgE antibody titer (IgE antibody) | inhibition of IgE antibody titer increased by HgCl2 (in words) (IgE antibody; 30 mg/kg/day orally for 6 days) | inhibition at 30 mg/kg/day (IgE antibody; [2]) | anti-type II collagen antibody titer (ΔOD, FIG. 4) [1] | amount of anti-ssDNA antibody (ΔOD, FIG. 3) (anti-ssDNA antibody) | rate of increase in left and right hindpaw volumes (FIG. 1) (male BN rats; measured up to day 18) | arthritis severity score (FIG. 2) (male BN rats; total of four limbs, maximum 16) | Ki (human heart chymase)
Nc1cnc(-c2cccc(Cl)c2)n(CC(=O)NC(Cc2ccccc2)C(=O)C(F)(F)C(=O)NCc2ccccc2)c1=O (centres unmarked) [Compound 2, 2-[5-amino-2-(3-chlorophenyl)-1 6-dihydro-6-oxo-1-pyrimidinyl]-N-[1-benzyl-3-[N-(benzyl)carbamoyl]-3,3-difluoro-2-oxopropyl]acetamide] | 22.3% | 67 ± 7.57 µg/mL | tendency to inhibit |  |  |  |  |  | 
COC(=O)c1ccc2oc(C(=O)C(Cc3ccccc3)NC(=O)Cn3c(-c4cccc(OC)c4)ncc(N)c3=O)nc2c1 (centres unmarked) [Compound 4, 2-[5-amino-2-(3-methoxyphenyl)-6-oxo-1,6-dihydro-1-pyrimidin-yl]-N-[1-[[5-(methoxycarbonyl)benzoxazol-2-yl]carbonyl]-2-phenylethyl]acetamide] |  | 66.10 ± 8.46* | significantly inhibited | 23.4% |  |  |  |  | 
COC(=O)c1ccc2oc(C(=O)C(Cc3ccccc3)NC(=O)Cn3c(-c4ccc(F)cc4)ncc(N)c3=O)nc2c1 (centres unmarked) [Compound 1, 2-[5-amino-2-(4-fluorophenyl)-6-oxo-1,6-dihydro-1-pyrimidinyl]-N-[1-[[5-(methoxycarbonyl)benzoxazol-2-yl]carbonyl]-2-phenylethyl]acetamide] |  | 62.24 ± 5.08* | significantly inhibited | 27.8% | reduced | significantly reduced | significantly suppressed | significantly reduced | 0.023 µM
COc1cccc(-c2ncc(N)c(=O)n2CC(=O)NC(Cc2ccccc2)C(=O)c2nc3ccccc3o2)c1 (centres unmarked) [Compound 3, 2-[5-amino-2-(3-methoxyphenyl)-6-oxo-1,6-dihydro-1-pyrimidinyl]-N-[1-[(benzoxazol-2-yl)carbonyl]-2-phenylethyl]acetamide] |  | 65.25 ± 6.71* | significantly inhibited | 24.3% |  |  |  |  | 
